Laboratory results published in PubChem BioAssay (NCI).
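How tested: cells in 96-well plates exposed to compound for 48 hours at five concentrations. GI50 = concentration required for 50% inhibition of growth. At the TGI there is no net growth.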

Assays:
Assay in all cases: inhibition of tumour cell growth, NCI panel, 48 h
HOP-62 NSCLC = test system: HOP-62 NSCLC
KM12 colon = test system: KM12 colon
SR leukemia = test system: SR leukemia
CAKI-1 renal = test system: CAKI-1 renal
MOLT-4 leukemia = test system: MOLT-4 leukemia
U251 CNS = test system: U251 CNS
NCI-H460 lung = test system: NCI-H460 lung
SNB-19 CNS = test system: SNB-19 CNS
T-47D breast = test system: T-47D breast
K-562 leukemia = test system: K-562 leukemia
RXF 393 renal = test system: RXF 393 renal
BT-549 breast = test system: BT-549 breast
HCC-2998 colon = test system: HCC-2998 colon
HT29 colon = test system: HT29 colon
786-0 renal = test system: 786-0 renal
UACC-62 melanoma = test system: UACC-62 melanoma
EKVX NSCLC = test system: EKVX NSCLC
HCT-15 colon = test system: HCT-15 colon
HL-60(TB) leukemia = test system: HL-60(TB) leukemia
MALME-3M melanoma = test system: MALME-3M melanoma
RPMI-8226 leukemia = test system: RPMI-8226 leukemia
SK-OV-3 ovarian = test system: SK-OV-3 ovarian
OVCAR-5 ovarian = test system: OVCAR-5 ovarian
ACHN renal = test system: ACHN renal
COLO 205 colon = test system: COLO 205 colon
NCI-H522 lung = test system: NCI-H522 lung
NCI-H226 lung = test system: NCI-H226 lung
A549 NSCLC = test system: A549 NSCLC
LOX IMVI melanoma = test system: LOX IMVI melanoma
MDA-MB-231 breast = test system: MDA-MB-231 breast
OVCAR-8 ovarian = test system: OVCAR-8 ovarian
CCRF-CEM leukemia = test system: CCRF-CEM leukemia
DU-145 prostate = test system: DU-145 prostate
MCF7 breast = test system: MCF7 breast
SN12C renal = test system: SN12C renal
OVCAR-3 ovarian = test system: OVCAR-3 ovarian
PC-3 prostate = test system: PC-3 prostate
HCT-116 colon = test system: HCT-116 colon
NCI/ADR-RES ovarian = test system: NCI/ADR-RES ovarian
HS 578T breast = test system: HS 578T breast
SF-295 CNS = test system: SF-295 CNS
UACC-257 melanoma = test system: UACC-257 melanoma
SF-268 CNS = test system: SF-268 CNS
SNB-75 CNS = test system: SNB-75 CNS
OVCAR-4 ovarian = test system: OVCAR-4 ovarian
MDA-MB-435 = test system: MDA-MB-435
A498 renal = test system: A498 renal
M14 melanoma = test system: M14 melanoma
SK-MEL-28 melanoma = test system: SK-MEL-28 melanoma
IGROV1 ovarian = test system: IGROV1 ovarian
SK-MEL-5 melanoma = test system: SK-MEL-5 melanoma
UO-31 renal = test system: UO-31 renal
NCI-H23 lung = test system: NCI-H23 lung
TK-10 renal = test system: TK-10 renal
HOP-92 NSCLC = test system: HOP-92 NSCLC
SK-MEL-2 melanoma = test system: SK-MEL-2 melanoma
SW-620 colon = test system: SW-620 colon
SF-539 CNS = test system: SF-539 CNS

Work on COc1ccc2c(O)c(/C=C3\N=Nc4ncccc43)oc2c1C[C@H]1CCNC[C@H]1F yielded a GI50 (HOP-62 NSCLC) of 409 nM, a TGI (HOP-62 NSCLC) of 3.94 µM and a GI50 (KM12 colon) of 390 nM. The TGI (KM12 colon) was 4.79 µM, the GI50 (SR leukemia) was 30 nM and the TGI (SR leukemia) was 3.18 µM. For the same compound, the GI50 (CAKI-1 renal) was 161 nM, the TGI (CAKI-1 renal) was 11.3 µM and the GI50 (MOLT-4 leukemia) was 294 nM. It also gave a TGI (MOLT-4 leukemia) of 1620 nM, a GI50 (U251 CNS) of 307 nM and a TGI (U251 CNS) of 3.29 µM. For the same compound, the GI50 (NCI-H460 lung) was 388 nM, the TGI (NCI-H460 lung) was 1800 nM and the GI50 (SNB-19 CNS) was 419 nM. The TGI (SNB-19 CNS) was 11.6 µM, the GI50 (T-47D breast) was 3.46 µM and the TGI (T-47D breast) was 21.1 µM. For the same compound, the GI50 (K-562 leukemia) was 436 nM, the TGI (K-562 leukemia) was 27.4 µM and the GI50 (RXF 393 renal) was 183 nM. It also gave a TGI (RXF 393 renal) of 550 nM, a GI50 (BT-549 breast) of 211 nM and a TGI (BT-549 breast) of 2300 nM. For the same compound, the GI50 (HCC-2998 colon) was 2380 nM, the TGI (HCC-2998 colon) was 11.5 µM and the GI50 (HT29 colon) was 411 nM. It also gave a TGI (HT29 colon) of 6.93 µM, a GI50 (786-0 renal) of 241 nM and a TGI (786-0 renal) of 1610 nM. For the same compound, the GI50 (UACC-62 melanoma) was 476 nM, the TGI (UACC-62 melanoma) was 2380 nM and the GI50 (EKVX NSCLC) was 484 nM. The TGI (EKVX NSCLC) was 9.62 µM, the GI50 (HCT-15 colon) was 507 nM and the TGI (HCT-15 colon) was 12.2 µM. It also gave a GI50 (HL-60(TB) leukemia) of 246 nM, a TGI (HL-60(TB) leukemia) of 625 nM and a GI50 (MALME-3M melanoma) of 1610 nM. For the same compound, the TGI (MALME-3M melanoma) was 5.15 µM, the GI50 (RPMI-8226 leukemia) was 286 nM and the TGI (RPMI-8226 leukemia) was 1060 nM. The GI50 (SK-OV-3 ovarian) was 1570 nM, the TGI (SK-OV-3 ovarian) was 9.05 µM and the GI50 (OVCAR-5 ovarian) was 479 nM. For the same compound, the TGI (OVCAR-5 ovarian) was 24.6 µM, the GI50 (ACHN renal) was 270 nM and the TGI (ACHN renal) was 8.18 µM. For the same compound, the GI50 (COLO 205 colon) was 240 nM, the TGI (COLO 205 colon) was 806 nM and the GI50 (NCI-H522 lung) was 206 nM. It also gave a TGI (NCI-H522 lung) of 2230 nM, a GI50 (NCI-H226 lung) of 160 nM and a TGI (NCI-H226 lung) of 5.29 µM. For the same compound, the GI50 (A549 NSCLC) was 1740 nM, the TGI (A549 NSCLC) was 10.8 µM and the GI50 (LOX IMVI melanoma) was 304 nM. It also gave a TGI (LOX IMVI melanoma) of 1780 nM, a GI50 (MDA-MB-231 breast) of 184 nM and a TGI (MDA-MB-231 breast) of 3.02 µM. The GI50 (OVCAR-8 ovarian) was 477 nM, the TGI (OVCAR-8 ovarian) was 12.3 µM and the GI50 (CCRF-CEM leukemia) was 227 nM. For the same compound, the TGI (CCRF-CEM leukemia) was 876 nM, the GI50 (DU-145 prostate) was 753 nM and the TGI (DU-145 prostate) was 12 µM. The GI50 (MCF7 breast) was 207 nM, the TGI (MCF7 breast) was 9.18 µM and the GI50 (SN12C renal) was 442 nM. For the same compound, the TGI (SN12C renal) was 10.6 µM, the GI50 (OVCAR-3 ovarian) was 431 nM and the TGI (OVCAR-3 ovarian) was 11.4 µM. It also gave a GI50 (PC-3 prostate) of 267 nM, a TGI (PC-3 prostate) of 11.1 µM and a GI50 (HCT-116 colon) of 131 nM. The TGI (HCT-116 colon) was 2150 nM, the GI50 (NCI/ADR-RES ovarian) was 3.37 µM and the TGI (NCI/ADR-RES ovarian) was 28.9 µM. For the same compound, the GI50 (HS 578T breast) was 160 nM, the TGI (HS 578T breast) was 5.34 µM and the GI50 (SF-295 CNS) was 343 nM. It also gave a TGI (SF-295 CNS) of 11.9 µM, a GI50 (UACC-257 melanoma) of 2660 nM and a TGI (UACC-257 melanoma) of 10.2 µM. The GI50 (SF-268 CNS) was 296 nM, the TGI (SF-268 CNS) was 10.4 µM and the GI50 (SNB-75 CNS) was 185 nM. For the same compound, the TGI (SNB-75 CNS) was 1540 nM, the GI50 (OVCAR-4 ovarian) was 566 nM and the TGI (OVCAR-4 ovarian) was 6.84 µM. It also gave a GI50 (MDA-MB-435) of 467 nM, a TGI (MDA-MB-435) of 10.6 µM and a GI50 (A498 renal) of 238 nM. The TGI (A498 renal) was 2910 nM, the GI50 (M14 melanoma) was 589 nM and the TGI (M14 melanoma) was 3.64 µM. It also gave a GI50 (SK-MEL-28 melanoma) of 2220 nM, a TGI (SK-MEL-28 melanoma) of 12 µM and a GI50 (IGROV1 ovarian) of 353 nM. It also gave a TGI (IGROV1 ovarian) of 5.06 µM, a GI50 (SK-MEL-5 melanoma) of 942 nM and a TGI (SK-MEL-5 melanoma) of 10.6 µM. For the same compound, the GI50 (UO-31 renal) was 146 nM, the TGI (UO-31 renal) was 3.16 µM and the GI50 (NCI-H23 lung) was 475 nM. The TGI (NCI-H23 lung) was 4.7 µM, the GI50 (TK-10 renal) was 479 nM and the TGI (TK-10 renal) was 9.13 µM. The GI50 (HOP-92 NSCLC) was 2390 nM, the TGI (HOP-92 NSCLC) was 11.3 µM and the GI50 (SK-MEL-2 melanoma) was 1100 nM. For the same compound, the TGI (SK-MEL-2 melanoma) was 3.73 µM, the GI50 (SW-620 colon) was 291 nM and the TGI (SW-620 colon) was 2220 nM. The GI50 (SF-539 CNS) was 252 nM and the TGI (SF-539 CNS) was 952 nM.
